Like-named read-outs stand apart in the source and are kept apart here.
What was measured:
[1] = tested on: virus of Venezuelan equine encephalomyelitis, strain Trinidad; parameters: species or system outbred male mice; details: mouse, in vivo
[2] = tested on: Herpes simplex virus (HSV) of type 1, US strain; assay: Herpetic infection model in irradiated mice, survival after immunization; assay type: in vivo, outbred mice; details: for Number of dead animals, % / Number of survived animals, %: 2.5 LD50 s.c.
[3] = tested on: antigens of the VVE virus; parameters: species or system white outbred male mice; details: mouse, in vivo
[4] = tested on: botulinum toxin of type A; parameters: species or system white mice; details: mouse, in vivo
[5] = tested on: Cowpox virus (CP), Pumenok strain; parameters: species or system outbred male mice; details: mouse, in vivo
[6] = tested on: botulinum toxin of type A; parameters: species or system guinea pigs; details: guinea pig, in vivo
smallpox antigens = tested on: smallpox antigens; parameters: species or system white outbred male mice; details: mouse, in vivo
[7] = adjuvant 150 μg/individual i.m. 3, 2, 1 days before

## Nc1cccc2c([O-])nnc([O-])c12.[Na+].[Na+] [Abidov's adjuvant, sodium salt of 5-amino-1,2,3,4-tetrahydrophthalazine-1,4-dione]
[1]
  survival rate of infected mice: 60-100%
[2]; [7]
  Number of dead animals, %: 70%
  Number of survived animals, %: 30%
[2]; only adjuvant, single dose
  Number of dead animals, %: 80%
  Number of survived animals, %: 20%
[2]; adjuvant used in immunization schemes with herpetic vaccine
  increase of the effectiveness of IMP: 30%
[3]
  increase in the level of positive seroconversions compared with animals vaccinated only with VVE: 30%
[4]
  Survival rate, M (M − tm − M + tm), %: 0%
[5]
  adjuvant effect in relation to SLDV: not possible to identify a pronounced adjuvant effect
  effect on the formation of specific orthopoxvirus immunity: no negative effect
[6]
  Survival rate, M (M − tm − M + tm), %: 0%
Smallpox antigens
  increase in the titer of specific anti-smallpox antibodies compared with animals vaccinated with only SLDV: 4 times
